From ChEMBL document CHEMBL1201862, “PubChem BioAssay data set” (2004)
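Step 1: Grow cells in 96-well plates. Step 2: Expose to compound for 48 hours at 5 concentrations. Step 3: Interpolate endpoints linearly; if unreached, use highest concentration. At the GI50, growth is halved.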 Activity calls are given as the source filed them. Cut-off read from the data, not from the text of the source: active = GI50 up to about 1.1 µM and inactive = higher. Where a SMILES comes first, the peptide text is derived from it. [ ]: non-standard residue; d: D form. The star is where a group is joined. Iva = CC[C](C)(N)C(=O)O; Boc = CC(C)(C)OC(=O)*; X54 = C1CCC(=NO*)C1

Key:
Assay in all cases: NCI anticancer screen, dose series, 48 h
MCF7 = system: MCF7
UACC-257 = system: UACC-257
NCI-H522 = system: NCI-H522
A549 = system: A549
HOP-92 = system: HOP-92
MDA-N = system: MDA-N
HCT-116 = system: HCT-116
Malme-3M = system: Malme-3M
SF-268 = system: SF-268
M14 = system: M14
UO-31 = system: UO-31
HOP-62 = system: HOP-62
BT-549 = system: BT-549
SK-MEL-2 = system: SK-MEL-2
EKVX = system: EKVX
SNB-75 = system: SNB-75
OVCAR-8 = system: OVCAR-8
PC-3 = system: PC-3
SK-OV-3 = system: SK-OV-3
U-251 = system: U-251
TK-10 = system: TK-10
NCI/ADR-RES = system: NCI/ADR-RES
HCC 2998 = system: HCC 2998
DU-145 = system: DU-145
K562 = system: K562
ACHN = system: ACHN
NCI-H226 = system: NCI-H226
T47D = system: T47D
COLO 205 = system: COLO 205
HCT-15 = system: HCT-15
CCRF-CEM = system: CCRF-CEM
OVCAR-3 = system: OVCAR-3
SW-620 = system: SW-620
MDA-MB-435 = system: MDA-MB-435
SF-295 = system: SF-295
RPMI-8226 = system: RPMI-8226
KM12 = system: KM12
SF-539 = system: SF-539
Hs-578T = system: Hs-578T
SR = system: SR
A498 = system: A498
OVCAR-5 = system: OVCAR-5
SNB-19 = system: SNB-19
CAKI-1 = system: CAKI-1
MDA-MB-231 = system: MDA-MB-231
SN12C = system: SN12C
HL-60 = system: HL-60
LOX IMVI = system: LOX IMVI
HT-29 = system: HT-29
UACC-62 = system: UACC-62
NCI-H23 = system: NCI-H23
MOLT-4 = system: MOLT-4
786-0 = system: 786-0
RXF 393 = system: RXF 393
SK-MEL-5 = system: SK-MEL-5
IGROV-1 = system: IGROV-1
OVCAR-4 = system: OVCAR-4
SK-MEL-28 = system: SK-MEL-28
NCI-H460 = system: NCI-H460

SMILES: CNC(=S)/C(C#N)=C(\N)N1CCN(C)CC1
- GI50 (MCF7): > 100 µM (inactive)
- GI50 (UACC-257): > 100 µM (inactive)
- GI50 (NCI-H522): > 100 µM (inactive)
- GI50 (A549): > 100 µM (inactive)
- GI50 (HOP-92): > 100 µM (inactive)
- GI50 (MDA-N): > 100 µM (inactive)
- GI50 (HCT-116): > 100 µM (inactive)
- GI50 (Malme-3M): > 100 µM (inactive)
- GI50 (SF-268): > 100 µM (inactive)
- GI50 (M14): > 100 µM (inactive)
- GI50 (UO-31): > 100 µM (inactive)
- GI50 (HOP-62): > 100 µM (inactive)
- GI50 (BT-549): > 100 µM (inactive)
- GI50 (SK-MEL-2): > 100 µM (inactive)
- GI50 (EKVX): > 100 µM (inactive)
- GI50 (SNB-75): > 100 µM (inactive)
- GI50 (OVCAR-8): > 100 µM (inactive)
- GI50 (PC-3): > 100 µM (inactive)
- GI50 (SK-OV-3): > 100 µM (inactive)
- GI50 (U-251): > 100 µM (inactive)
- GI50 (TK-10): > 100 µM (inactive)
- GI50 (NCI/ADR-RES): > 100 µM (inactive)
- GI50 (HCC 2998): > 100 µM (inactive)
- GI50 (DU-145): > 100 µM (inactive)
- GI50 (K562): > 100 µM (inactive)
- GI50 (ACHN): > 100 µM (inactive)
- GI50 (NCI-H226): > 100 µM (inactive)
- GI50 (T47D): > 100 µM (inactive)
- GI50 (COLO 205): > 100 µM (inactive)
- GI50 (HCT-15): > 100 µM
- GI50 (CCRF-CEM): > 100 µM (inactive)
- GI50 (OVCAR-3): > 100 µM (inactive)
- GI50 (SW-620): > 100 µM (inactive)
- GI50 (MDA-MB-435): > 100 µM (inactive)
- GI50 (SF-295): > 100 µM (inactive)
- GI50 (RPMI-8226): > 100 µM (inactive)
- GI50 (KM12): > 100 µM (inactive)
- GI50 (SF-539): > 100 µM (inactive)
- GI50 (Hs-578T): > 100 µM (inactive)
- GI50 (SR): > 100 µM (inactive)
- GI50 (A498): > 100 µM (inactive)
- GI50 (OVCAR-5): > 100 µM (inactive)
- GI50 (SNB-19): > 100 µM (inactive)
- GI50 (CAKI-1): > 100 µM (inactive)
- GI50 (MDA-MB-231): 30.5 µM (inactive)
- GI50 (SN12C): > 100 µM (inactive)
- GI50 (HL-60): > 100 µM (inactive)
- GI50 (LOX IMVI): > 100 µM (inactive)
- GI50 (HT-29): > 100 µM (inactive)
- GI50 (UACC-62): > 100 µM (inactive)
- GI50 (NCI-H23): > 100 µM (inactive)
- GI50 (MOLT-4): > 100 µM (inactive)
- GI50 (786-0): > 100 µM (inactive)
- GI50 (RXF 393): > 100 µM (inactive)
- GI50 (SK-MEL-5): > 100 µM (inactive)
- GI50 (IGROV-1): > 100 µM (inactive)

SMILES: Cc1ccc(/N=C2/C(c3ccccc3)=C(SC3=C(c4ccccc4)/C(=N/c4ccc(C)cc4)c4ccccc43)c3ccccc32)cc1
- GI50 (MCF7): 27.1 µM (inactive)
- GI50 (UACC-257): 23.4 µM (inactive)
- GI50 (NCI-H522): 34.6 µM (inactive)
- GI50 (A549): 32.9 µM (inactive)
- GI50 (HOP-92): 12.1 µM (inactive)
- GI50 (MDA-N): 97.7 µM (inactive)
- GI50 (HCT-116): 20.9 µM (inactive)
- GI50 (SF-268): 6.44 µM (inactive)
- GI50 (M14): 59.8 µM (inactive)
- GI50 (UO-31): 15.6 µM (inactive)
- GI50 (HOP-62): 10 µM (inactive)
- GI50 (BT-549): 23.7 µM (inactive)
- GI50 (OVCAR-4): 4.09 µM (inactive)
- GI50 (SK-MEL-2): > 39.1 µM (inactive)
- GI50 (EKVX): 19.1 µM (inactive)
- GI50 (SNB-75): 8.63 µM (inactive)
- GI50 (OVCAR-8): 9.59 µM (inactive)
- GI50 (PC-3): 55 µM (inactive)
- GI50 (SK-OV-3): 15 µM (inactive)
- GI50 (U-251): 15.7 µM (inactive)
- GI50 (TK-10): 31.9 µM (inactive)
- GI50 (NCI/ADR-RES): 22.1 µM (inactive)
- GI50 (HCC 2998): > 37.9 µM (inactive)
- GI50 (DU-145): 32.1 µM (inactive)
- GI50 (K562): 32.4 µM (inactive)
- GI50 (ACHN): 3.38 µM (inactive)
- GI50 (NCI-H226): 24.4 µM (inactive)
- GI50 (T47D): 33.3 µM (inactive)
- GI50 (COLO 205): > 100 µM (inactive)
- GI50 (HCT-15): 17.7 µM
- GI50 (CCRF-CEM): > 100 µM (inactive)
- GI50 (OVCAR-3): 27.5 µM (inactive)
- GI50 (SK-MEL-28): > 39.7 µM (inactive)
- GI50 (SW-620): > 100 µM (inactive)
- GI50 (MDA-MB-435): > 100 µM (inactive)
- GI50 (SF-295): 12.5 µM (inactive)
- GI50 (RPMI-8226): 84.7 µM (inactive)
- GI50 (KM12): 39.4 µM (inactive)
- GI50 (NCI-H460): 8.91 µM (inactive)
- GI50 (SF-539): 6.21 µM (inactive)
- GI50 (Hs-578T): 9.98 µM (inactive)
- GI50 (SR): > 100 µM (inactive)
- GI50 (A498): 15.2 µM (inactive)
- GI50 (OVCAR-5): 39 µM (inactive)
- GI50 (SNB-19): 6.31 µM (inactive)
- GI50 (CAKI-1): 15.2 µM (inactive)
- GI50 (MDA-MB-231): 12.6 µM (inactive)
- GI50 (SN12C): 20.9 µM (inactive)
- GI50 (HL-60): 7.87 µM (inactive)
- GI50 (LOX IMVI): 67.6 µM (inactive)
- GI50 (HT-29): 24.6 µM (inactive)
- GI50 (UACC-62): 16.7 µM (inactive)
- GI50 (NCI-H23): 14 µM (inactive)
- GI50 (MOLT-4): > 87.7 µM (inactive)
- GI50 (786-0): 10.4 µM (inactive)
- GI50 (RXF 393): 12.4 µM (inactive)
- GI50 (SK-MEL-5): 19.4 µM (inactive)
- GI50 (IGROV-1): 17.1 µM (inactive)

SMILES: CCC(C)(NC(=O)C(C)NC(=O)OC(C)(C)C)C(=O)NC(C)C(=O)NC(C)(CC)C(=O)ON=C1CCCC1 (stereo unspecified) (Boc-A[Iva]A[Iva]-X54; configuration not given here)
- GI50 (MCF7): > 100 µM (inactive)
- GI50 (NCI-H522): > 100 µM (inactive)
- GI50 (HOP-92): > 100 µM (inactive)
- GI50 (MDA-N): > 100 µM (inactive)
- GI50 (HCT-116): > 100 µM (inactive)
- GI50 (Malme-3M): > 100 µM (inactive)
- GI50 (M14): > 100 µM (inactive)
- GI50 (UO-31): > 100 µM (inactive)
- GI50 (HOP-62): > 100 µM (inactive)
- GI50 (BT-549): > 100 µM (inactive)
- GI50 (SK-MEL-2): > 100 µM (inactive)
- GI50 (SNB-75): > 100 µM (inactive)
- GI50 (OVCAR-8): > 100 µM (inactive)
- GI50 (PC-3): > 100 µM (inactive)
- GI50 (SK-OV-3): > 100 µM (inactive)
- GI50 (U-251): > 100 µM (inactive)
- GI50 (NCI/ADR-RES): > 100 µM (inactive)
- GI50 (HCC 2998): > 100 µM (inactive)
- GI50 (DU-145): > 100 µM (inactive)
- GI50 (K562): 31.1 µM (inactive)
- GI50 (NCI-H226): > 100 µM (inactive)
- GI50 (T47D): > 100 µM (inactive)
- GI50 (COLO 205): > 100 µM (inactive)
- GI50 (HCT-15): > 100 µM
- GI50 (CCRF-CEM): > 100 µM (inactive)
- GI50 (OVCAR-3): > 100 µM (inactive)
- GI50 (SK-MEL-28): > 100 µM (inactive)
- GI50 (MDA-MB-435): > 100 µM (inactive)
- GI50 (SF-295): > 100 µM (inactive)
- GI50 (RPMI-8226): > 100 µM (inactive)
- GI50 (KM12): > 100 µM (inactive)
- GI50 (NCI-H460): > 100 µM (inactive)
- GI50 (Hs-578T): > 100 µM (inactive)
- GI50 (SR): > 100 µM (inactive)
- GI50 (A498): > 100 µM (inactive)
- GI50 (OVCAR-5): > 100 µM (inactive)
- GI50 (SNB-19): > 100 µM (inactive)
- GI50 (CAKI-1): > 100 µM (inactive)
- GI50 (MDA-MB-231): > 100 µM (inactive)
- GI50 (SN12C): > 100 µM (inactive)
- GI50 (HL-60): > 100 µM (inactive)
- GI50 (UACC-62): > 100 µM (inactive)
- GI50 (NCI-H23): > 100 µM (inactive)
- GI50 (MOLT-4): 29.9 µM (inactive)
- GI50 (RXF 393): 16.7 µM (inactive)
- GI50 (SK-MEL-5): > 100 µM (inactive)
- GI50 (IGROV-1): > 100 µM (inactive)
